Data on 9 compounds can be found in paper PMC9608075 (Pharmaceutics, 2022).

Usually fraction remaining stands for the share of the starting amount still present when the sample was taken. A higher fraction remaining goes with greater stability. The IC50 is the concentration that gives 50% inhibition. As a reminder, the bioavailability is the share of a dose that reaches the circulation, judged against a reference dose that is usually intravenous. In general, AUC(0-t) refers to exposure summed from dosing to a finite time, without extrapolation to infinity. A lower AUC(0-t) goes with less exposure. One may read the clearance as a measure of how efficiently the substance is removed, as volume per time. Low values mean inefficient removal, high ones efficient removal. One may read the Cmax as the maximum level reached in the sampled fluid or tissue. By Tmax is commonly meant the time at which the peak concentration occurs. Broadly, the half-life is how long it takes for the measured level to halve. Low values mean rapid decline, high ones slow decline. The term Kp denotes the ratio of the level in a tissue or fluid to that in plasma or blood. A word on the inhibition: it is the percentage by which the read-out fell short of the control. Higher therefore signals a response far below the control.

The nature of data set [1]: Metabolite identification (MET-ID) in spiked brain homogenate. It counts as in vitro ADME, mouse. Conditions: 30 min post-spike.
Data set [2] in a line: in vitro. The class given is in vitro ADME. Conditions: mouse, brain homogenate. How it is done: (§1) Briefly, brain homogenates were prepared by adding 9X of 0.1 M potassium phosphate buffer to weighed tissue and homogenization using a probe sonicator. Plasma and crude brain homogenate (1 mL each) were spiked with the analyte to give a final concentration of 10 µM and then incubated at 37 °C for 1 h. At predetermined time points (0, 30, and 60 min), an aliquot from each matrix was quenched with 3X volume of acetonitrile containing the internal standard (IS; losartan: 0.5 μM) and vortex-mixed for 30 s. The final mixtures were centrifuged at 10,000× g for 10 min at 4 °C and supernatants were used for LC-MS analyses.
(§2) The samples were analyzed using a Dionex Ultimate 3000 ultra-high-performance LC system coupled with a Q Exactive Focus orbitrap mass spectrometer (Thermo Fisher Scientific Inc., Waltham MA, USA) operated with a heated electrospray ionization (HESI) ion source. […] The mass spectrometer was operated in switching ionization mode to collect both positive and negative molecular ions while being controlled by Xcalibur software 4.0.27.13 (Thermo Scientific). Analytes were quantified and the disappearance of the respective catechols was monitored in the full-scan mode (from m/z 50 to 1600) by comparing samples at the different time-points.

The nature of data set [3]: Metabolic stability in mouse plasma. It counts as in vitro ADME. To be noted: 37 °C, 60 min. The method, then: as §1, §2
Data set [4] is described as follows: Initial two time-point pharmacokinetic study in mice. The class given is in vivo, mouse. To be noted: 50 mg/kg PO; for brain levels: at both time points (30 and 60 min); for concentration at 30 min: 30 min post dose. How it is done:
For in vivo PK studies, male CD-1 mice (Harlan Laboratories, Indianapolis, IN, USA) weighing 25-30 g were used. The mice were maintained on a 12 h light-dark cycle with ad libitum access to food and water. […] Brains were dissected and immediately flash frozen (-80 °C). […] Caffeic acid was analyzed underivatized. […] Plasma and brain tissue samples were processed by matching dilutions of the calibration standards. […] Then, 2 μL of the sample was analyzed using LC/MS/MS system. […] Plasma and brain tissue samples were processed by matching the dilutions of calibration standards of the respective tissues. […] The solutions were vortexed for 15 s and then allowed to sit at room temperature for 45 min. These mixtures were vortexed again for 10 s and centrifuged at 10,000× g for 10 min to collect the supernatant. Then, 2 μL of the sample was injected into the LC/MS/MS system for analysis. Chromatographic analysis was performed using a Thermo Scientific Vanquish UPLC system consisting of an analytical pump and an autosampler coupled with a […] spectrometer. […] The mobile phase was delivered as a gradient at a flow rate of 0.400 mL/min. […] The analyte was monitored using a ThermoScientific […] triple-quadrupole mass-spectrometric detector equipped with an electrospray interface, and operated in negative ion mode. The instrument was controlled by Thermo Scientific Xcalibur (version 4.2.47) software.

In data set [5] the target is human recombinant GCPII (Homo sapiens, UniProt Q04609). Put plainly: GCPII activity assay (radioactivity-based, NAA-[3H]-G). It counts as biochemical. Conditions: for IC50: human recombinant GCPII. How it is done:
Inhibition potencies against GCPII (IC50 values) were determined using previously described methods with minor modifications. Briefly, reactions were carried out in the presence of NAA-[^3H]-G and human recombinant GCPII enzyme in Tris-HCl and CoCl2 at 37 °C for 20 min. Reactions were stopped with ice-cold sodium phosphate buffer containing 1 mM EDTA. Aliquots were then transferred to 96-well spin columns containing AG1X8 ion-exchange resin and centrifuged. NAA-[^3H]-G was bound to the resin and [^3H]-G eluted in the flow-through. Columns were washed with formate to ensure complete elution of [^3H]-G. The flow-through and the washes were collected, and aliquots were transferred and dried to completion in a solid scintillator-coated 96-well plate. The radioactivity corresponding to [^3H]-G was determined with a scintillation counter. Subsequently, IC50 curves were generated from CPM results.
The inhibitory potencies of the catechols were determined using a modified radioactivity-based assay involving human recombinant GCPII enzyme as previously reported. Based on literature reports of catecholic moieties binding to zinc metalloproteases, we tested the potency of L-DOPA (1) against GCPII activity and discovered that it is a submicromolar inhibitor. […] This prompted us to evaluate analogs of L-DOPA (Table 1) to determine the essential structural features responsible for its GCPII inhibitory activity. […] Subsequently, we tested L-DOPA analogs retaining the catechol moiety (compounds 5–10). […] Taken together, these structure–activity relationship (SAR) studies highlight the critical role played by the catechol and carboxylate groups of L-DOPA in GPCII inhibition as well as the insignificant contribution of the alpha amino group.

Data set [6] in a line: in vivo. To be noted: male, CD-1, mouse. How it is done:
All of the formulations were freshly prepared prior to the dosing. […] Brain and plasma collection were carried out as described above. […] Plasma and brain tissue samples were processed by matching the dilutions of calibration standards of the respective tissues. […] The solutions were vortexed for 15 s and then allowed to sit at room temperature for 45 min. These mixtures were vortexed again for 10 s and centrifuged at 10,000× g for 10 min to collect the supernatant. Then, 2 μL of the sample was injected into the LC/MS/MS system for analysis. Chromatographic analysis was performed using a Thermo Scientific Vanquish UPLC system consisting of an analytical pump and an autosampler coupled with a […] spectrometer. […] The mobile phase was delivered as a gradient at a flow rate of 0.400 mL/min. […] The analyte was monitored using a ThermoScientific […] triple-quadrupole mass-spectrometric detector equipped with an electrospray interface, and operated in negative ion mode. The instrument was controlled by Thermo Scientific Xcalibur (version 4.2.47) software.

Data set [7] has as its target T1, GCPII (Mus musculus, UniProt O35409).
T1 construct: from tissue
Kind of data set: D-DOPA target engagement: ex vivo GCPII activity in mouse brain. To be noted: for brain GCPII activity, effect in words: 30 min.

Setting [8] is: male, CD-1, mouse, plasma, read-out: plasma levels.

T1 sequence (O35409 whole entry): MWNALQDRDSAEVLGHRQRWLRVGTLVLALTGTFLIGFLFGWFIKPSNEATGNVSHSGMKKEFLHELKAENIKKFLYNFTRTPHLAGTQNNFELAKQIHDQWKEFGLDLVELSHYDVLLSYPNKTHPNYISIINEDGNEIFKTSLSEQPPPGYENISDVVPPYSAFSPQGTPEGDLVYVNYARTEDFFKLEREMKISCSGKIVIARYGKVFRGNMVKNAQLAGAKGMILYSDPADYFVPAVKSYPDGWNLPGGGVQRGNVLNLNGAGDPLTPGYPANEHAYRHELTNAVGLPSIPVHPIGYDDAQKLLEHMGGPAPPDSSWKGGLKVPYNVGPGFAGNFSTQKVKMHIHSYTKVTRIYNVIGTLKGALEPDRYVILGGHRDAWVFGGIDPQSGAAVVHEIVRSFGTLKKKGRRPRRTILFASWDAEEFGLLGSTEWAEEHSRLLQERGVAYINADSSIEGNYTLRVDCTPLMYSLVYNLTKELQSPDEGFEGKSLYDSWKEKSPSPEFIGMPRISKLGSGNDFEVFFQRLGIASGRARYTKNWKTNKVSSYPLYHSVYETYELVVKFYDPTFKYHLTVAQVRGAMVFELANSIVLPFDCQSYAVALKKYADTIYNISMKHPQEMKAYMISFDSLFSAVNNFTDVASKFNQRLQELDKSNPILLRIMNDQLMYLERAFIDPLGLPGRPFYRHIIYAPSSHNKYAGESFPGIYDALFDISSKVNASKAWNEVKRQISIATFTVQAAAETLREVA
human recombinant GCPII, sequence (Q04609 whole entry): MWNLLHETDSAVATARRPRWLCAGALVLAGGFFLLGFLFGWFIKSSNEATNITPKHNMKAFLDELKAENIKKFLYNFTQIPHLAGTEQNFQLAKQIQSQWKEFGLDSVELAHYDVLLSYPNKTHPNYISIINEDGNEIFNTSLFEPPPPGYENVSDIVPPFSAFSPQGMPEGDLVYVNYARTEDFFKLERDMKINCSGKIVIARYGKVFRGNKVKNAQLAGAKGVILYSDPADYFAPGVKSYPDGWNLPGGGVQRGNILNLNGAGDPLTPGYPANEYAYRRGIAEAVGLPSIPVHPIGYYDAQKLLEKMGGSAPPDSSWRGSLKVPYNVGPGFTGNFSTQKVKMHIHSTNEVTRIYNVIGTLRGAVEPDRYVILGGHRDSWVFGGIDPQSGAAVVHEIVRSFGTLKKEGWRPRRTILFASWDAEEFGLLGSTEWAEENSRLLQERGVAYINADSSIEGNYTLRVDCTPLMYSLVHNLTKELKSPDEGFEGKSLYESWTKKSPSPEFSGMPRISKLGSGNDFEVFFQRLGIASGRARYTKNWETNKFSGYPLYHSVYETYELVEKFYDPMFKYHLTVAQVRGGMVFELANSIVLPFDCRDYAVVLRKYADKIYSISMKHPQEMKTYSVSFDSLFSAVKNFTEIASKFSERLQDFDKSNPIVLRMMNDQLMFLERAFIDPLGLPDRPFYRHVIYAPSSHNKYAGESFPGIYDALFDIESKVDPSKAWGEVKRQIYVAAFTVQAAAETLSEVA

Regarding `N[C@@H](Cc1ccc(O)c(O)c1)C(=O)O` [Compound 1, L-DOPA, reference compound], the “Dopamine release in spiked brain homogenate” value in data set [1] is reported as “observed”. In data set [2], this compound registered a fraction remaining at 0.5 h, 10 µM of 0%. Further, the share remaining at 1 h, 10 µM in data set [3] came to 64%. The same compound had a brain levels in data set [4] of under 0.10 nmol/g. Moreover, the concentration at 30 min in data set [4] (setting [8]) was 3.74 µM. Also, the concentration for half-maximal inhibition (IC50) in data set [5] came out at 0.6 µM.

As for `N[C@@H](Cc1ccc(O)cc1)C(=O)O` [Compound 2, Tyr], the IC50 in data set [5] worked out at 100 µM.

For `NC(Cc1ccc(=O)n(O)c1)C(=O)O` (stereo not shown) [Compound 4], the IC50 in data set [5] is over 100 µM.

As for `C[C@](N)(Cc1ccc(O)c(O)c1)C(=O)O` [Compound 5], the IC50 in data set [5] was over 100 µM.

Regarding `CC(=O)N[C@@H](Cc1ccc(O)c(O)c1)C(=O)O` [Compound 6], the IC50 in data set [5] amounted to 20 µM.

With `NCCc1ccc(O)c(O)c1` [Compound 7, Dopamine, reference compound], the IC50 in data set [5] is over 100 µM.

On to `O=C(O)CCc1ccc(O)c(O)c1` [Compound 8], for which, in data set [5], the IC50 is 4 µM. In addition, in data set [5] (versus L-DOPA), the “decrease in inhibitory potency” value turned out to be 6.7 fold.

Turning to `O=C(O)/C=C/c1ccc(O)c(O)c1` [Compound 9, Caffeic Acid], the figures for the share remaining at 1 h, 10 µM in data set [2] and in data set [3] were 98% and 56%, respectively. In data set [4] (30 and 60 min), the “plasma levels following oral administration” value fell in the range of 6 to 7 µM. The same compound came in with a brain levels in data set [4] of under 0.01 nmol/g. Further, the concentration at 30 min in data set [4] (setting [8]) is 6.47 µM. Further, in data set [5], the IC50 amounted to 0.3 µM.

`N[C@H](Cc1ccc(O)c(O)c1)C(=O)O` [Compound 10, D-DOPA]: in data set [1], the “Dopamine release in spiked brain homogenate” value is given as “not observed”. Further, in data set [6], the bioavailability worked out at 47.7%. The area under the curve AUC(0-t) came out at 30.5 µM·h in data set [6] (iv, 10 mg/kg) and 72.7 µM·h in data set [6] (po, 50 mg/kg). In addition, the clearance in data set [6] (iv, 10 mg/kg, Cl) was 28 mL/min/kg; in data set [6] (iv, 10 mg/kg, clearance (Cl)) it was 28 mL/min/kg. Also, the Cmax in data set [6] (iv, 10 mg/kg, Cmax) came to 61.1 µM; in data set [6] (po, 50 mg/kg), 1.74 µM; in data set [6] (po, 50 mg/kg, Cmax) it was 99 µM. For the same compound, the Tmax in data set [6] (iv, 10 mg/kg, Tmax) is 5 min; in data set [6] (po, 50 mg/kg), 15 min; in data set [6] (po, 50 mg/kg, Tmax), 30 min. Besides, in data set [6] (iv, 10 mg/kg, half-life (t1/2)), the half-life is 21 min. The AUCbrain in data set [6] (po, 50 mg/kg) is recorded as 2.42 nmol/g. The Kp in data set [6] (po, 50 mg/kg, AUCBrain/Plasma ratio (brain penetration index)) came to 0.03. For the same compound, the “brain GCPII activity, effect in words” value is “significant inhibition” in data set [7] (PO 50 mg/kg + sodium benzoate IP 400 mg/kg, p < 0.001 vs untreated) and “significant inhibition” in data set [7] (monotherapy PO 50 mg/kg, p < 0.01 vs untreated). This compound also had an inhibition at 50 mg/kg in data set [7] (mouse, po) of about 25%. For the same compound, the share remaining at 1 h, 10 µM in data set [2] is 82%; in data set [3], 100%. Also, in data set [4], the brain levels was ~ 1 nmol/g. Also, in data set [4] (setting [8]), the concentration at 30 min stood at 84.3 µM. The concentration at 1 h in data set [4] (male, CD-1, mouse, plasma, one hour post dose, read-out: plasma levels) amounted to 21.5 µM. Moreover, the IC50 in data set [5] was 0.2 µM.
